Structures can show the parent of a compound that is named as a salt.
Test system: oral cavity and tongue
Test: Taste and irritation test by subjects (self-made sample vs reference sample)
Assay type: in vivo, human
Conditions: for Instantaneous irritation / Delayed irritation: hemihydrobromide
Experimental: In the examples, the taste masking effects of test samples were evaluated by the subject's perception of the bitterness and irritation of the oral cavity and tongue. The Taste and Irritation Classification Tested by the Subjects: [table]

## Cc1ccc(Sc2ccccc2N2CCNCC2)c(C)c1 [vortioxetine hemihydrobromide]
Subject 4, 0-1 minute, powder equivalent to 20 mg of vortioxetine tasted, listed as Reference sample (1a)
  Instantaneous irritation: ++ (+ + Irritating, tolerable)
Subject 4, 0-1 minute, powder equivalent to 20 mg of vortioxetine tasted, listed as Reference sample (1e)
  Instantaneous irritation: ++ (+ + Irritating, tolerable)
Subject 4, 0-1 minute, powder equivalent to 20 mg of vortioxetine tasted, listed as Reference sample (2a)
  Instantaneous irritation: ++ (+ + Irritating, tolerable)
Subject 4, 0-1 minute, powder equivalent to 20 mg of vortioxetine tasted, listed as Reference sample (2c)
  Instantaneous irritation: ++ (+ + Irritating, tolerable)
Subject 4, 0-1 minute, powder equivalent to 20 mg of vortioxetine tasted, listed as Reference sample (3a)
  Instantaneous irritation: +++ (+ + + Strong irritation, intolerable)
Subject 4, 0-1 minute, powder equivalent to 20 mg of vortioxetine tasted, listed as Reference sample (3b)
  Instantaneous irritation: +++ (+ + + Strong irritation, intolerable)
Subject 4, 0-1 minute, powder equivalent to 20 mg of vortioxetine tasted, listed as Reference sample (3c)
  Instantaneous irritation: +++ (+ + + Strong irritation, intolerable)
Subject 4, 0-1 minute, powder equivalent to 20 mg of vortioxetine tasted, listed as Reference sample (4a)
  Instantaneous irritation: +++ (+ + + Strong irritation, intolerable)
Subject 4, 0-1 minute, powder equivalent to 20 mg of vortioxetine tasted, listed as Reference sample (1d)
  Instantaneous irritation: ++ (+ + Irritating, tolerable)
Subject 4, 0-1 minute, powder equivalent to 20 mg of vortioxetine tasted, listed as Reference sample (2d)
  Instantaneous irritation: ++ (+ + Irritating, tolerable)
Subject 4, powder equivalent to 20 mg of vortioxetine tasted, listed as Reference sample (1a)
  Delayed irritation: 15 to 30 min
Subject 4, powder equivalent to 20 mg of vortioxetine tasted, listed as Reference sample (1e)
  Delayed irritation: 15 to 30 min
Subject 4, powder equivalent to 20 mg of vortioxetine tasted, listed as Reference sample (2a)
  Delayed irritation: >30 min
Subject 4, powder equivalent to 20 mg of vortioxetine tasted, listed as Reference sample (2c)
  Delayed irritation: >30 min
Subject 4, powder equivalent to 20 mg of vortioxetine tasted, listed as Reference sample (3a)
  Delayed irritation: 1 to 15 min
Subject 4, powder equivalent to 20 mg of vortioxetine tasted, listed as Reference sample (3b)
  Delayed irritation: 1 to 15 min
Subject 4, powder equivalent to 20 mg of vortioxetine tasted, listed as Reference sample (3c)
  Delayed irritation: >30 min
Subject 4, powder equivalent to 20 mg of vortioxetine tasted, listed as Reference sample (4a)
  Delayed irritation: >30 min
Subject 4, powder equivalent to 20 mg of vortioxetine tasted, listed as Reference sample (5)
  Delayed irritation: >30 min
Subject 4, powder equivalent to 20 mg of vortioxetine tasted, listed as Reference sample (6)
  Delayed irritation: 15 to 30 min
Subject 4, powder equivalent to 20 mg of vortioxetine tasted, listed as Reference sample (7a)
  Delayed irritation: >30 min
Subject 4, powder equivalent to 20 mg of vortioxetine tasted, listed as Reference sample (8a)
  Delayed irritation: >30 min
Subject 4, powder equivalent to 20 mg of vortioxetine tasted, listed as Reference sample (8b)
  Delayed irritation: >30 min
Subject 4, powder equivalent to 20 mg of vortioxetine tasted, listed as Reference sample (1d)
  Delayed irritation: 15 to 30 min
Subject 4, powder equivalent to 20 mg of vortioxetine tasted, listed as Reference sample (2d)
  Delayed irritation: >30 min
Subject 5, 0-1 minute, powder equivalent to 20 mg of vortioxetine tasted, listed as Reference sample (1a)
  Instantaneous irritation: +++ (+ + + Strong irritation, intolerable)
Subject 5, 0-1 minute, powder equivalent to 20 mg of vortioxetine tasted, listed as Reference sample (1e)
  Instantaneous irritation: +++ (+ + + Strong irritation, intolerable)
Subject 5, 0-1 minute, powder equivalent to 20 mg of vortioxetine tasted, listed as Reference sample (2a)
  Instantaneous irritation: +++ (+ + + Strong irritation, intolerable)
Subject 5, 0-1 minute, powder equivalent to 20 mg of vortioxetine tasted, listed as Reference sample (2c)
  Instantaneous irritation: +++ (+ + + Strong irritation, intolerable)
Subject 5, 0-1 minute, powder equivalent to 20 mg of vortioxetine tasted, listed as Reference sample (3a)
  Instantaneous irritation: +++ (+ + + Strong irritation, intolerable)
Subject 5, 0-1 minute, powder equivalent to 20 mg of vortioxetine tasted, listed as Reference sample (3b)
  Instantaneous irritation: +++ (+ + + Strong irritation, intolerable)
Subject 5, 0-1 minute, powder equivalent to 20 mg of vortioxetine tasted, listed as Reference sample (3c)
  Instantaneous irritation: ++ (+ + Irritating, tolerable)
Subject 5, 0-1 minute, powder equivalent to 20 mg of vortioxetine tasted, listed as Reference sample (4a)
  Instantaneous irritation: ++ (+ + Irritating, tolerable)
Subject 5, 0-1 minute, powder equivalent to 20 mg of vortioxetine tasted, listed as Reference sample (1d)
  Instantaneous irritation: +++ (+ + + Strong irritation, intolerable)
Subject 5, 0-1 minute, powder equivalent to 20 mg of vortioxetine tasted, listed as Reference sample (2d)
  Instantaneous irritation: ++ (+ + Irritating, tolerable)
Subject 5, powder equivalent to 20 mg of vortioxetine tasted, listed as Reference sample (1a)
  Delayed irritation: >30 min
Subject 5, powder equivalent to 20 mg of vortioxetine tasted, listed as Reference sample (1e)
  Delayed irritation: >30 min
Subject 5, powder equivalent to 20 mg of vortioxetine tasted, listed as Reference sample (2a)
  Delayed irritation: 15 to 30 min
Subject 5, powder equivalent to 20 mg of vortioxetine tasted, listed as Reference sample (2c)
  Delayed irritation: 15 to 30 min
Subject 5, powder equivalent to 20 mg of vortioxetine tasted, listed as Reference sample (3a)
  Delayed irritation: 1 to 15 min
Subject 5, powder equivalent to 20 mg of vortioxetine tasted, listed as Reference sample (3b)
  Delayed irritation: 1 to 15 min
Subject 5, powder equivalent to 20 mg of vortioxetine tasted, listed as Reference sample (3c)
  Delayed irritation: >30 min
Subject 5, powder equivalent to 20 mg of vortioxetine tasted, listed as Reference sample (4a)
  Delayed irritation: 15 to 30 min
Subject 5, powder equivalent to 20 mg of vortioxetine tasted, listed as Reference sample (5)
  Delayed irritation: 15 to 30 min
Subject 5, powder equivalent to 20 mg of vortioxetine tasted, listed as Reference sample (6)
  Delayed irritation: >30 min
Subject 5, powder equivalent to 20 mg of vortioxetine tasted, listed as Reference sample (7a)
  Delayed irritation: >30 min
Subject 5, powder equivalent to 20 mg of vortioxetine tasted, listed as Reference sample (8a)
  Delayed irritation: 15 to 30 min
Subject 5, powder equivalent to 20 mg of vortioxetine tasted, listed as Reference sample (8b)
  Delayed irritation: 15 to 30 min
Subject 5, powder equivalent to 20 mg of vortioxetine tasted, listed as Reference sample (1d)
  Delayed irritation: >30 min
Subject 5, powder equivalent to 20 mg of vortioxetine tasted, listed as Reference sample (2d)
  Delayed irritation: 15 to 30 min
Average of 5 subjects, powder equivalent to 20 mg of vortioxetine
  Delayed irritation, time to disappear: more than 30 minutes
Average of 5 subjects, powder equivalent to 20 mg of vortioxetine, listed as Reference sample (1a)
  Instantaneous irritation: +++ (+ + + Strong irritation, intolerable)
Average of 5 subjects, powder equivalent to 20 mg of vortioxetine, listed as Reference sample (1e)
  Instantaneous irritation: +++ (+ + + Strong irritation, intolerable)
Average of 5 subjects, powder equivalent to 20 mg of vortioxetine, listed as Reference sample (2a)
  Instantaneous irritation: +++ (+ + + Strong irritation, intolerable)
Average of 5 subjects, powder equivalent to 20 mg of vortioxetine, listed as Reference sample (2c)
  Instantaneous irritation: ++ (+ + Irritating, tolerable)
Average of 5 subjects, powder equivalent to 20 mg of vortioxetine, listed as Reference sample (3a)
  Instantaneous irritation: ++ (+ + Irritating, tolerable)
Average of 5 subjects, powder equivalent to 20 mg of vortioxetine, listed as Reference sample (3b)
  Instantaneous irritation: ++ (+ + Irritating, tolerable)
Average of 5 subjects, powder equivalent to 20 mg of vortioxetine, listed as Reference sample (3c)
  Instantaneous irritation: ++ (+ + Irritating, tolerable)
Average of 5 subjects, powder equivalent to 20 mg of vortioxetine, listed as Reference sample (4a)
  Instantaneous irritation: +++ (+ + + Strong irritation, intolerable)
Average of 5 subjects, powder equivalent to 20 mg of vortioxetine, listed as Reference sample (5)
  Instantaneous irritation: ++ (+ + Irritating, tolerable)
Average of 5 subjects, powder equivalent to 20 mg of vortioxetine, listed as Reference sample (6)
  Instantaneous irritation: ++ (+ + Irritating, tolerable)
Average of 5 subjects, powder equivalent to 20 mg of vortioxetine, listed as Reference sample (7a)
  Instantaneous irritation: +++ (+ + + Strong irritation, intolerable)
Average of 5 subjects, powder equivalent to 20 mg of vortioxetine, listed as Reference sample (8a)
  Instantaneous irritation: ++ (+ + Irritating, tolerable)
Average of 5 subjects, powder equivalent to 20 mg of vortioxetine, listed as Reference sample (8b)
  Instantaneous irritation: ++ (+ + Irritating, tolerable)
Average of 5 subjects, powder equivalent to 20 mg of vortioxetine, listed as Reference sample (9a)
  Instantaneous irritation: +++ (+ + + Strong irritation, intolerable)
Average of 5 subjects, powder equivalent to 20 mg of vortioxetine, listed as Reference sample (9c)
  Instantaneous irritation: +++ (+ + + Strong irritation, intolerable)
Average of 5 subjects, powder equivalent to 20 mg of vortioxetine, listed as Reference sample (9e)
  Instantaneous irritation: ++ (+ + Irritating, tolerable)
Average of 5 subjects, powder equivalent to 20 mg of vortioxetine, listed as Reference sample (11a)
  Instantaneous irritation: ++ (+ + Irritating, tolerable)
Average of 5 subjects, powder equivalent to 20 mg of vortioxetine, listed as Reference sample (12a)
  Instantaneous irritation: +++ (+ + + Strong irritation, intolerable)
Average of 5 subjects, powder equivalent to 20 mg of vortioxetine, listed as Reference sample (12b)
  Instantaneous irritation: +++ (+ + + Strong irritation, intolerable)
Average of 5 subjects, powder equivalent to 20 mg of vortioxetine, listed as Reference sample (13a)
  Instantaneous irritation: ++ (+ + Irritating, tolerable)
Average of 5 subjects, powder equivalent to 20 mg of vortioxetine, listed as Reference sample (13b)
  Instantaneous irritation: ++ (+ + Irritating, tolerable)
Average of 5 subjects, powder equivalent to 20 mg of vortioxetine, listed as Reference sample (14a)
  Instantaneous irritation: ++ (+ + Irritating, tolerable)
Average of 5 subjects, powder equivalent to 20 mg of vortioxetine, listed as Reference sample (16)
  Instantaneous irritation: ++ (+ + Irritating, tolerable)
Average of 5 subjects, powder equivalent to 20 mg of vortioxetine, listed as Reference sample (17)
  Instantaneous irritation: ++ (+ + Irritating, tolerable)
Average of 5 subjects, powder equivalent to 20 mg of vortioxetine, listed as Reference sample (1d)
  Instantaneous irritation: +++ (+ + + Strong irritation, intolerable)
Average of 5 subjects, powder equivalent to 20 mg of vortioxetine, listed as Reference sample (2d)
  Instantaneous irritation: ++ (+ + Irritating, tolerable)
Average of 5 subjects, powder equivalent to 20 mg of vortioxetine, listed as Reference sample (9d)
  Instantaneous irritation: ++ (+ + Irritating, tolerable)

Source: patent US12642797B2, “Coated granule, solid dispersion, and preparation containing vortioxetine hydrobromide for oral taste masking” (Seasons Biotechnology (Taizhou) Co., Ltd., priority 2019, dated 2026)
